This is an account of results in PMC9458059, “Design, Synthesis and Biological Evaluation of New Carbohydrate-Based Coumarin Derivatives as Selective Carbonic Anhydrase IX Inhibitors via “Click” Reaction” (Molecules, 2022).

Molecules are shown by their SMILES. Read-outs that look alike come from different tables or passages of the source.

For one data set, the target named is T1, hCA IX (Homo sapiens, UniProt Q16790).
T1 construct: purchased
Put plainly: CA inhibition by the esterase assay, hCA IX. It is filed as biochemical. The method, then: (§1) The esterase assay was used for testing the inhibitory activities of target compounds against carbonic anhydrases. […] Next, the stock solution of inhibitor was diluted to the specified concentration by using analysis buffer. […] In addition, the purchased CA was diluted with analysis buffer and added to 96-well plates. Next, different concentrations of inhibitors were also added to 96-well plates. To form the inhibitors and enzymes complex, E-I solutions were preincubated together for 4 h before the test at room temperature. Meanwhile, the nonenzymatic hydrolysis rates were tested by the blank control experiments. The absorbances were determined by using multifunctional enzyme marking instrument.

Data set [1] can be described thus: Acute toxicity assay in mice. Conditions: mouse, in vivo, oral, mice, expected from preliminary data. The protocol: (§2) Finally, acute toxicity of representative compounds was conducted in mice to preliminarily evaluate the risk of target compounds to mammals. […].
(§3) […]. After the compound was administered, the latency of death was observed and recorded over a span of 14 days. The experimental protocols were evaluated and approved by the ethics committee of the Shenyang Pharmaceutical University.

For a further data set, the system named is mice. Put plainly: Acute toxicity assay in mice. The conditions noted are these: mouse, in vivo, 14 days. The method, then:
as §2, §3

Data set [2] can be described thus: Metabolic stability in mouse liver microsomes. A general note: Microsomes from liver hold many membrane-bound enzymes, among them those of drug oxidation.
A further data set deals with HT-29 cancer cells. Put plainly: Extracellular pH measurement, HT-29. It is filed as cell-based, human. The conditions noted are these: HT-29, 0.1 and 0.5 mM, 48 h, normoxia and hypoxia. The protocol: (§4) One important feature of CA IX is regulating the pH of tumor cells. The expression of CA IX in solid tumors will make the extracellular pH become more acidic to promote tumor growth and metastasis. Therefore, the effect on extracellular pH of the representative compounds 10a and 10h was tested in hypoxia and normoxic conditions. […] Especially, the extracellular acidification of these two cancer cells could be slightly reversed by this compound under normoxic condition. In addition, the reversal of extracellular acidification is more significant under hypoxia condition. Furthermore, a dose-dependent effect was observed.
(§5) Figure 3 Extracellular pH measurement after 48 h of HT-29 and MDA-MB-231 cancer cells in normoxia and hypoxia upon treatment with compound 10a and 10h (0.1 and 0.5 mM).

Another data set concerns MDA-MB-231 cancer cells. Nature of the data set: Extracellular pH measurement, MDA-MB-231. It counts as cell-based, human. The conditions noted are these: MDA-MB-231, 0.1 and 0.5 mM, 48 h, normoxia and hypoxia. The method, then:
as §4, §5

The next data set can be described thus: Plasma stability assay. Conditions: male, SD, pH 7.4, rat plasma, 37 °C. It is filed as in vitro ADME. The protocol:
In fact, most drugs reach their targets to show their pharmacological activity via the circulation system, therefore, the plasma stability of the target compound is a crucial consideration for the evaluation of its druggability. Therefore, the in vitro plasma stability assay of the representative compound was also performed in this study.
Rat plasma was collected from adult male SD rats. The in vitro stability of 10a was determined in rat plasma and in PBS at 37 °C, at the meantime, samples were taken at time points 0, 10, 30, 60, and 120, and tested by HPLC. The rest of the time was incubated in a constant temperature shaker to compare different time points. Compare the peak areas of 10a in PBS or in rat plasma (pH = 7.4, 37 °C) before and after constant temperature incubation at different time points. The compounds in rat plasma were extracted with methanol, centrifuged, and repeated three times, and then detected with a preparative liquid phase at 254 wavelength.

The target in another data set is hCA II (Homo sapiens, UniProt P00918). Put plainly: CA inhibition by the esterase assay, hCA II. Conditions: human recombinant enzyme, 4-nitrophenylacetate as substrate. It is filed as biochemical. The method, then: as §1
Another data set addresses T2, hCA I (Homo sapiens, UniProt P00915).
T2 construct: purchased
Nature of the data set: CA inhibition by the esterase assay, hCA I. It counts as biochemical. Conditions: human recombinant enzyme, 4-nitrophenylacetate as substrate. The protocol: as §1

The next data set relates to HT-29 cells. Nature of the data set: Cell viability MTT assay, HT-29. It counts as cell-based. Conditions: Homo sapiens. The protocol:
(§6) In the present study, the potential cytotoxicity of compounds 10a–10p was evaluated in vitro by MTT assay. […] So, half of each cell line were subjected to hypoxic conditions (0.5% O2, 5% CO2 and 94.5% N2) for inducing the expression of CA IX and the other half were incubated under normal conditions (normoxia). Subsequently, all synthesized derivatives were screened at a concentration of 100 μM to test their cytotoxicity in mentioned above cells.
(§7) The two human cancer cell lines were cultivated for 24 h at 37 °C in a 96-well plate. Subsequently, different concentrations of inhibitors were added to 96-well plate and then was incubated for 96 hours. After the MTT solution was added to per well, cancer cells were further incubated for 4 h at 37 °C. Finally, formazan crystals were dissolved by using DMSO. The cancer cells were from American Type Culture Collection.
(Formazan colour is commonly taken as a measure of viable cells.)

A further data set relates to MDA-MB-231 cells. Put plainly: Cell viability MTT assay, MDA-MB-231. Conditions: Homo sapiens. It is filed as cell-based. The protocol: as §6, §7
In the next data set the test system is MCF-10A cell line. Nature of the data set: Cytotoxicity against normal cell line MCF-10A (MTT assay). It is filed as cell-based. Conditions: Homo sapiens.
The target of another data set is T3, hERG channel (Homo sapiens, UniProt Q12809).
T3 construct: expressed in transfected cells; host or cells: HEK 293
Nature of the data set: Inhibition evaluation on hERG K+ channel (whole-cell recording, HEK 293). It is filed as cell-based. Conditions: HEK 293 cells stably transfected with hERG. (In general: Block of hERG is tested as a sign of cardiac risk.)

A further data set is described as follows: in vitro. Conditions: mouse, microsomes.

T3 sequence (Q12809 whole entry): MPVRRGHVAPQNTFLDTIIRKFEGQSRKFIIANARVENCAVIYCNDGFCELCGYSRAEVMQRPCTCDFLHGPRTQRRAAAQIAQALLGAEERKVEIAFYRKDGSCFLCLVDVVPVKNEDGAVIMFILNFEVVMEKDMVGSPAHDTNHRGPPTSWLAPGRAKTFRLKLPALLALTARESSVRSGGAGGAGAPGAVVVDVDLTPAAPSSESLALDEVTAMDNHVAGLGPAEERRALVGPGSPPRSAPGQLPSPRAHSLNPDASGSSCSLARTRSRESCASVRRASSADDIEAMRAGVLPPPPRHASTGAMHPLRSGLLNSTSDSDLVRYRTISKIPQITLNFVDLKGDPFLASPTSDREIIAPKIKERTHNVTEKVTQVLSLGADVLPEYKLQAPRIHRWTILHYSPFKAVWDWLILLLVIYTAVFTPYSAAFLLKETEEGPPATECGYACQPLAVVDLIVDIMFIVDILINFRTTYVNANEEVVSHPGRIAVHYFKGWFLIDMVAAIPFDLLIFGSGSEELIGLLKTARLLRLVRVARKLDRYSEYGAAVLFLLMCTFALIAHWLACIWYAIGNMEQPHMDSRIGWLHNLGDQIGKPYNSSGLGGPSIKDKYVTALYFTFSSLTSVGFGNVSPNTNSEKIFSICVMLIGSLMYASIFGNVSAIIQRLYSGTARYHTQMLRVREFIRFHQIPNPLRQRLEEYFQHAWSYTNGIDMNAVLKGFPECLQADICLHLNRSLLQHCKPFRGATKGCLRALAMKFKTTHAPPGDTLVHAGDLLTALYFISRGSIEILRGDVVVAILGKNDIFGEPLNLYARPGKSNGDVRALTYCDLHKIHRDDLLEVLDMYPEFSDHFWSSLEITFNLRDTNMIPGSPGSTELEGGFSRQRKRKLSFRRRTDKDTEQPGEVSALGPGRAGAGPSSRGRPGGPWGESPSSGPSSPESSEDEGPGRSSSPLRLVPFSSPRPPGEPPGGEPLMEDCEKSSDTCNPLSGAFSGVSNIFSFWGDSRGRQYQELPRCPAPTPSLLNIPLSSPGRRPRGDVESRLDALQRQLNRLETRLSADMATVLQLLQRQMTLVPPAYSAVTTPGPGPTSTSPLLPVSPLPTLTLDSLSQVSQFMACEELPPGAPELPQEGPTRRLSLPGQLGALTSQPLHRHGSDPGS
T2 sequence (P00915 whole entry): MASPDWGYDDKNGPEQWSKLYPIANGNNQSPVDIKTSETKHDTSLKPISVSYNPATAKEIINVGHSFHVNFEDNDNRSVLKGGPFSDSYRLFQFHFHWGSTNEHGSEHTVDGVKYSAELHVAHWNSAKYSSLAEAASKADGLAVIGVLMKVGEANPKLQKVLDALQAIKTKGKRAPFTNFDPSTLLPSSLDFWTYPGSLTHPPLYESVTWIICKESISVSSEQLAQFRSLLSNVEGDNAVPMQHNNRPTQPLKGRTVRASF
Experimental for hERG channel: HEK 293 cells were stably transfected with human Ether-a-gogo related gene (hERG) channel. The voltage-gated hERG potassium channel current was recorded at room temperature from randomly selected transfected cells using whole-cell recording technique with an EPC10 USB (HEKA) or Multiclamp 700 B amplifier (Molecular Devices) while electrical data was digitalized by Digidata1440 A with acquisition rate of 10 kHz and signals filtered at 2.5 KHz using Patchmaster or pClamp 10, respectively. Dofetilide was included as a positive control to ensure the accuracy and sensitivity of the test system. All experiments were performed in 3 times.

As for `O=c1ccc2ccc(OCc3cn([C@@H]4O[C@H](CO)[C@@H](O)[C@H](O)[C@H]4O)nn3)cc2o1` [Compound 10a, 7-[(1-β-. D-glucopyranosyl-1H-1,2,3-triazol-4-yl)methoxy]-2H-chromen-2-one], the 50% inhibitory concentration (IC50) (as a rule, the concentration that gives 50% inhibition) was 0.011 µM on hCA IX (human recombinant enzyme, esterase assay, 4-nitrophenylacetate as substrate); 21.5 µM on hCA II; 33.2 µM at hCA I; more than 100 µM in the data set with MCF-10A cell line; more than 50 µM on hERG channel. On hCA IX (ratio of IC50 values), the “Selectivity Ratio hCA I/hCA IX” value is 3018. Also, the “Selectivity Ratio hCA II/hCA IX” value on hCA IX (ratio of IC50 values) was 1955. The LD50 (as a rule, the dose at which mortality reaches 50%) at 14 days in data set [1] is more than 1500 mg/kg. The “Survival Quantity/Total Quantity” value in the data set with mice (500 mg/kg), with mice (1000 mg/kg) and in the data set on mice (1500 mg/kg) was 5/5 each time. Moreover, the CLint scaled (commonly a measure of how fast metabolising enzymes remove a compound, apart from limits set by blood flow) at 1 μM in [2] (mouse, liver microsomes) was found to be 4.76 mL/min/kg. In addition, the half-life at 1 μM in data set [2] (mouse, liver microsomes) came to 19.2 h. Besides, the “Effect on extracellular acidification (extracellular pH)” value with HT-29 cancer cells and in the data set on MDA-MB-231 cancer cells was “important impact on the extracellular acidification” in each case. The fraction remaining at 0 h in the data set “Plasma stability assay” (time point 0 min) was 100%. For the same compound, the fraction remaining at 10 min in “Plasma stability assay” (time point 10 min) amounted to 115%. Besides, the amount remaining at 0.5 h in “Plasma stability assay” (time point 30 min) is 93%. Moreover, in “Plasma stability assay” (time point 60 min), the amount remaining at 1 h turned out to be 86%. Besides, in the data set “Plasma stability assay” (time point 120 min), the amount remaining at 2 h is 102%. In “Plasma stability assay” (read-out: T1/2 plasma stability), the half-life is more than 20.5 h. Further, the viability – broadly, a per cent measure of how many cells are alive, often set against a control – at 100 µM turned out to be 32.5% in the data set with HT-29 cells (hypoxia (0.5% O2, 5% CO2 and 94.5% N2), read-out: Cell Viability (%) HT-29 Hypoxia); 40.2% in the data set with HT-29 cells (normoxia, read-out: Cell Viability (%) HT-29 Normoxia); 32.9% in the data set on MDA-MB-231 cells (hypoxia (0.5% O2, 5% CO2 and 94.5% N2), read-out: Cell Viability (%) MDA-MB-231 Hypoxia); 51.3% in the data set with MDA-MB-231 cells (normoxia, read-out: Cell Viability (%) MDA-MB-231 Normoxia).
As for `O=C(O)Cc1ccccc1Nc1c(Cl)cccc1Cl` [Diclofenac, reference compound], the CL in data set [2] (mouse liver microsomes, 1 μΜ test compound) is given as 137.4 mL/min/kg. Further, the half-life at 1 μM in the data set “in vitro” is 0.667 h.
